Data as given in patent US10399940B2, “Substituted pyrrolidines and methods of use” (AbbVie S.à.r.l., priority 2016, dated 2019).
Where two headings read alike, the source gives them in different places.

Target: T1, F508delCFTR (Homo sapiens, UniProt P13569, DEL508-508)
T1 construct: expressed in transfected cells; host or cells: CFBE41o- (human lung derived epithelial cell line), doxycycline-inducible expression
Test: Cell Surface Expression-Horse Radish Peroxidase (CSE-HRP) assay
Assay type: cell-based
Conditions: CFBE41o-F508delCFTR-HRP cells; for Maximum % activity (with co-corrector): with co-corrector (2 μM); for Maximum % activity (with co-corrector) / Maximum % activity (without co-corrector): normalized to on-plate positive control, highest concentration 20 μM
In short: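 CFBE41o- cells expressed F508delCFTR with HRP in the fourth exofacial loop, induced by 0.5 μg/mL doxycycline for 72 h at 37 °C. Compounds alone or with 2 μM co-corrector ran 18–24 h at 33 °C, 8-point 3-fold from 20 μM. Washed-cell luminol luminescence was normalized to DMSO and positive control, fitted sigmoidally for EC50 (three plates).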

[1] = test compound without co-corrector, 18-24 hours at 33° C., read-out: EC50 (without co-corrector)
[2] = with co-corrector (2 μM of 3-[(2R,4R)-4-({[1-(2,2-difluoro-1,3-benzodioxol-5-yl)cyclopropyl]carbonyl}amino)-7-methoxy-3,4-dihydro-2H-chromen-2-yl]benzoic acid), read-out: EC50 (with co-corrector)

T1 sequence (P13569 with tags, fused parts or gaps DEL508-508): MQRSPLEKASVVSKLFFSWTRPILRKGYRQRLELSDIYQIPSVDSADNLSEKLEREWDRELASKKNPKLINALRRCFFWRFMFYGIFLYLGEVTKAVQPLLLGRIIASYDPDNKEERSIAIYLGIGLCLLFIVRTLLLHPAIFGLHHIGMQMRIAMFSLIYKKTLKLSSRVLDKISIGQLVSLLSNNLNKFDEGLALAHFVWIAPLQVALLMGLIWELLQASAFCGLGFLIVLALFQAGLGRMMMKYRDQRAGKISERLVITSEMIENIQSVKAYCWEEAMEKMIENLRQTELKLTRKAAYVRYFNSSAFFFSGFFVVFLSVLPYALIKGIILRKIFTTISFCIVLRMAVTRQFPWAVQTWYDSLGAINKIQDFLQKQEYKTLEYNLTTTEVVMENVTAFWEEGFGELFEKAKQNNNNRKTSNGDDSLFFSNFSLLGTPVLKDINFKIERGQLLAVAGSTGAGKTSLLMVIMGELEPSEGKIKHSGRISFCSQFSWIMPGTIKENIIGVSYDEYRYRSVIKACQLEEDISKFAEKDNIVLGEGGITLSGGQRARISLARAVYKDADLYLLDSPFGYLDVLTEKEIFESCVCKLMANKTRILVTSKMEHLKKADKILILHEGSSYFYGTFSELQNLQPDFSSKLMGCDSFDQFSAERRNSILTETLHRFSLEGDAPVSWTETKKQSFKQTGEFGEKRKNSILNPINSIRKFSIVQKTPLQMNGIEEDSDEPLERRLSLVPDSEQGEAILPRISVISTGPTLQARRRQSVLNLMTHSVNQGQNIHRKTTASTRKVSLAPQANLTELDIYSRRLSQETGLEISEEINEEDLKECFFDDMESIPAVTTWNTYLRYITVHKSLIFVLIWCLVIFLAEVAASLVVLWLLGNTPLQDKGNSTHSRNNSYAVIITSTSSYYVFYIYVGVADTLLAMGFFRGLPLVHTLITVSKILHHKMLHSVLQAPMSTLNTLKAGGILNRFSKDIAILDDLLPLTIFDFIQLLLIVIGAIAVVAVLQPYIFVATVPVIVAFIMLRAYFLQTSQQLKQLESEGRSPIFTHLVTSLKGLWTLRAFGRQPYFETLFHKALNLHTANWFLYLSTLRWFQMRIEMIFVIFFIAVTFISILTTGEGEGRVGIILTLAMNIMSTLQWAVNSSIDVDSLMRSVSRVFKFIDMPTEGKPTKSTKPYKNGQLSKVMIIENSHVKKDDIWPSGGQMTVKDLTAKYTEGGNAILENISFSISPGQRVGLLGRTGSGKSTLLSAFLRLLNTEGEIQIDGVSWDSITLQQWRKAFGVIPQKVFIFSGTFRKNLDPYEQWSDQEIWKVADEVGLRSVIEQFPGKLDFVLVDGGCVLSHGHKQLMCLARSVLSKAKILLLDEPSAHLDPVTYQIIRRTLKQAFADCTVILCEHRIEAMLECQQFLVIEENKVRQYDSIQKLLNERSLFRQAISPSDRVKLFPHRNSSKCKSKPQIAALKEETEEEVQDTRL

With [2H]C([2H])([2H])Oc1ccc(C(F)(F)F)cc1C([2H])([2H])O[C@H]1[C@H](C(C)(C)C)[C@@H](C(=O)O)N(C(=O)[C@@H]2CCCCO2)[C@H]1c1ccccc1C [Example 234, (2S,3R,4S,5S)-3-tert-butyl-4-{[{2-[(^2H3)methyloxy]-5-(trifluoromethyl)phenyl}(^2H2)methyl]oxy}-5-(2-methylphenyl)-1-[(2S)-oxane-2-carbonyl]pyrrolidine-2-carboxylic acid] the EC50 [1] was less than 1000 nM, the EC50 [2] was less than 1000 nM and the “Maximum % activity (with co-corrector)” value was “+++ (≥350)”. For the same compound, the “Maximum % activity (without co-corrector)” value was “+++ (≥200)”.

In the case of [2H]C([2H])(O[C@H]1[C@H](C(C)(C)C)[C@@H](C(=O)O)N(C(=O)[C@@H]2CCCCO2)[C@H]1c1ccccc1C)c1cc(C(C)(C)C)ccc1OC [Example 235, (2S,3R,4S,5S)-3-tert-butyl-4-{[(5-tert-butyl-2-methoxyphenyl)(^2H2)methyl]oxy}-5-(2-methylphenyl)-1-[(2S)-oxane-2-carbonyl]pyrrolidine-2-carboxylic acid], the EC50 [1] is reported as less than 1000 nM, the EC50 [2] is reported as less than 1000 nM and the “Maximum % activity (with co-corrector)” value is reported as “+++ (≥350)”. For the same compound, the “Maximum % activity (without co-corrector)” value was “+++ (≥200)”.

In the case of Cc1cc(C)c2cc(CO[C@H]3[C@H](C(C)(C)C)[C@@H](C(=O)O)N(C(=O)[C@@H]4CCCCO4)[C@H]3c3ccccc3C)c(Cl)nc2c1 [Example 236, (2S,3R,4S,5S)-3-tert-butyl-4-[(2-chloro-5,7-dimethylquinolin-3-yl)methoxy]-5-(2-methylphenyl)-1-[(2S)-oxane-2-carbonyl]pyrrolidine-2-carboxylic acid], the EC50 [1] is reported as 1000 to 10000 nM, the EC50 [2] is reported as 1000 to 10000 nM and the “Maximum % activity (with co-corrector)” value is reported as “+++ (≥350)”. The “Maximum % activity (without co-corrector)” value was “++ (≥100 and <200)”.

For COc1nc2c(C)ccc(C)c2cc1CO[C@H]1[C@H](C(C)(C)C)[C@@H](C(=O)O)N(C(=O)[C@@H]2CCCCO2)[C@H]1c1ccccc1C [Example 237, (2S,3R,4S,5S)-3-tert-butyl-4-[(2-methoxy-5,8-dimethylquinolin-3-yl)methoxy]-5-(2-methylphenyl)-1-[(2S)-oxane-2-carbonyl]pyrrolidine-2-carboxylic acid], the EC50 [1] was 1000 to 10000 nM, the EC50 [2] was less than 1000 nM and the “Maximum % activity (with co-corrector)” value was “+++ (≥350)”. For the same compound, the “Maximum % activity (without co-corrector)” value was “+++ (≥200)”.

For COc1nc2cc(C)cc(C)c2cc1CO[C@H]1[C@H](C(C)(C)C)[C@@H](C(=O)O)N(C(=O)[C@@H]2CCCCO2)[C@H]1c1ccccc1C [Example 238, (2S,3R,4S,5S)-3-tert-butyl-4-[(2-methoxy-5,7-dimethylquinolin-3-yl)methoxy]-5-(2-methylphenyl)-1-[(2S)-oxane-2-carbonyl]pyrrolidine-2-carboxylic acid], the EC50 [1] was 1000 to 10000 nM, the EC50 [2] was less than 1000 nM and the “Maximum % activity (with co-corrector)” value was “+++ (≥350)”. The “Maximum % activity (without co-corrector)” value was “+++ (≥200)”.

In the case of COc1ccccc1[C@H]1[C@@H](OCc2cc(C3CCC3)cnc2OC)[C@H](C(C)(C)C)[C@@H](C(=O)O)N1C(=O)[C@@H]1CCCCO1 [Example 239, (2S,3R,4S,5S)-3-tert-butyl-4-[(5-cyclobutyl-2-methoxypyridin-3-yl)methoxy]-5-(2-methoxyphenyl)-1-[(2S)-oxane-2-carbonyl]pyrrolidine-2-carboxylic acid], the EC50 [1] is reported as 1000 to 10000 nM, the EC50 [2] is reported as less than 1000 nM and the “Maximum % activity (with co-corrector)” value is reported as “+++ (≥350)”. For the same compound, the “Maximum % activity (without co-corrector)” value was “++ (≥100 and <200)”.

COc1ccccc1[C@H]1[C@@H](OCc2cc(C(F)(F)F)cnc2OC)[C@H](C(C)(C)C)[C@@H](C(=O)O)N1C(=O)[C@@H]1CCCCO1 [Example 240, (2S,3R,4S,5S)-3-tert-butyl-5-(2-methoxyphenyl)-4-{[2-methoxy-5-(trifluoromethyl)pyridin-3-yl]methoxy}-1-[(2S)-oxane-2-carbonyl]pyrrolidine-2-carboxylic acid] was tested, and the EC50 [1] was 1000 to 10000 nM, the EC50 [2] was less than 1000 nM and the “Maximum % activity (with co-corrector)” value was “+++ (≥350)”. The “Maximum % activity (without co-corrector)” value was “++ (≥100 and <200)”.

With COc1ccccc1[C@H]1[C@@H](OCc2cc(C(C)(C)C)cnc2OC)[C@H](C(C)(C)C)[C@@H](C(=O)O)N1C(=O)[C@@H]1CCCCO1 [Example 241, (2S,3R,4S,5S)-3-tert-butyl-4-[(5-tert-butyl-2-methoxypyridin-3-yl)methoxy]-5-(2-methoxyphenyl)-1-[(2S)-oxane-2-carbonyl]pyrrolidine-2-carboxylic acid] the EC50 [1] was 1000 to 10000 nM, the EC50 [2] was less than 1000 nM and the “Maximum % activity (with co-corrector)” value was “+++ (≥350)”. For the same compound, the “Maximum % activity (without co-corrector)” value was “+++ (≥200)”.

For COc1nc2c(C)cc(C)cc2cc1CO[C@H]1[C@H](C(C)(C)C)[C@@H](C(=O)O)N(C(=O)[C@@H]2CCCCO2)[C@H]1c1ccccc1C [Example 242, (2S,3R,4S,5S)-3-tert-butyl-4-[(2-methoxy-6,8-dimethylquinolin-3-yl)methoxy]-5-(2-methylphenyl)-1-[(2S)-oxane-2-carbonyl]pyrrolidine-2-carboxylic acid], the EC50 [1] was 1000 to 10000 nM, the EC50 [2] was 1000 to 10000 nM and the “Maximum % activity (with co-corrector)” value was “+++ (≥350)”. The “Maximum % activity (without co-corrector)” value was “++ (≥100 and <200)”.

For COc1ncc(C2(C)CC2)cc1CO[C@H]1[C@H](C(C)(C)C)[C@@H](C(=O)O)N(C(=O)[C@@H]2CCCCO2)[C@H]1c1ccccc1C [Example 243, (2S,3R,4S,5S)-3-tert-butyl-4-{[2-methoxy-5-(1-methylcyclopropyl)pyridin-3-yl]methoxy}-5-(2-methylphenyl)-1-[(2S)-oxane-2-carbonyl]pyrrolidine-2-carboxylic acid], the EC50 [1] was 1000 to 10000 nM, the EC50 [2] was less than 1000 nM and the “Maximum % activity (with co-corrector)” value was “+++ (≥350)”. The “Maximum % activity (without co-corrector)” value was “+++ (≥200)”.

In the case of COc1nc2c(C)cccc2cc1CO[C@H]1[C@H](C(C)(C)C)[C@@H](C(=O)O)N(C(=O)[C@@H]2CCCCO2)[C@H]1c1ccccc1C [Example 244, (2S,3R,4S,5S)-3-tert-butyl-4-[(2-methoxy-8-methylquinolin-3-yl)methoxy]-5-(2-methylphenyl)-1-[(2S)-oxane-2-carbonyl]pyrrolidine-2-carboxylic acid], the EC50 [1] is reported as 1000 to 10000 nM, the EC50 [2] is reported as 1000 to 10000 nM and the “Maximum % activity (with co-corrector)” value is reported as “+++ (≥350)”. For the same compound, the “Maximum % activity (without co-corrector)” value was “++ (≥100 and <200)”.

In the case of COc1ccc(C(C)(C)C)cc1CO[C@H]1[C@H](C(C)(C)C)[C@@H](C(=O)O)N(C(=O)OC(C)C)[C@H]1c1cccnc1OC(C)C [Example 245, (2S,3R,4S,5S)-3-tert-butyl-4-[(5-tert-butyl-2-methoxyphenyl)methoxy]-1-{[(propan-2-yl)oxy]carbonyl}-5-{2-[(propan-2-yl)oxy]pyridin-3-yl}pyrrolidine-2-carboxylic acid], the EC50 [1] is reported as 1000 to 10000 nM, the EC50 [2] is reported as 1000 to 10000 nM and the “Maximum % activity (with co-corrector)” value is reported as “+++ (≥350)”. The “Maximum % activity (without co-corrector)” value was “+++ (≥200)”.

With COc1ccc(C2(C)CCC2)cc1CO[C@H]1[C@H](C(C)(C)C)[C@@H](C(=O)O)N(C(=O)OC(C)C)[C@H]1c1cccnc1OC(C)C [Example 246, (2S,3R,4S,5S)-3-tert-butyl-4-{[2-methoxy-5-(1-methylcyclobutyl)phenyl]methoxy}-1-{[(propan-2-yl)oxy]carbonyl}-5-{2-[(propan-2-yl)oxy]pyridin-3-yl}pyrrolidine-2-carboxylic acid] the EC50 [1] was 1000 to 10000 nM, the EC50 [2] was less than 1000 nM and the “Maximum % activity (with co-corrector)” value was “+++ (≥350)”. The “Maximum % activity (without co-corrector)” value was “+++ (≥200)”.

COc1ccc(C(C)(C)C)cc1CO[C@H]1[C@H](C(C)(C)C)[C@@H](C(=O)O)N(C(=O)[C@@H]2CCCO2)[C@H]1c1ccccc1C [Example 247, (2S,3R,4S,5S)-3-tert-butyl-4-[(5-tert-butyl-2-methoxyphenyl)methoxy]-5-(2-methylphenyl)-1-[(2S)-oxolane-2-carbonyl]pyrrolidine-2-carboxylic acid] was tested, and the EC50 [1] was 1000 to 10000 nM, the EC50 [2] was 1000 to 10000 nM and the “Maximum % activity (with co-corrector)” value was “+++ (≥350)”. For the same compound, the “Maximum % activity (without co-corrector)” value was “+++ (≥200)”.

In the case of COc1nc2c(C)ccc(C)c2cc1CO[C@H]1[C@H](C(C)(C)C)[C@@H](C(=O)O)N(C(=O)C2CCCCC2)[C@H]1c1cccnc1OC(C)C [Example 248, (2S,3R,4S,5S)-3-tert-butyl-1-(cyclohexanecarbonyl)-4-[(2-methoxy-5,8-dimethylquinolin-3-yl)methoxy]-5-{2-[(propan-2-yl)oxy]pyridin-3-yl}pyrrolidine-2-carboxylic acid], the EC50 [1] is reported as 1000 to 10000 nM, the EC50 [2] is reported as 1000 to 10000 nM and the “Maximum % activity (with co-corrector)” value is reported as “+++ (≥350)”. For the same compound, the “Maximum % activity (without co-corrector)” value was “+++ (≥200)”.

C=C(CO[C@H]1[C@H](C(C)(C)C)[C@@H](C(=O)O)N(C(=O)[C@@H]2CCCCO2)[C@H]1c1ccccc1C)c1cc(C(F)(F)F)ccc1OC [Example 249, (2S,3R,4S,5S)-3-tert-butyl-4-({2-[2-methoxy-5-(trifluoromethyl)phenyl]prop-2-en-1-yl}oxy)-5-(2-methylphenyl)-1-[(2S)-oxane-2-carbonyl]pyrrolidine-2-carboxylic acid] was tested, and the EC50 [1] was 1000 to 10000 nM, the EC50 [2] was less than 1000 nM and the “Maximum % activity (with co-corrector)” value was “+++ (≥350)”. The “Maximum % activity (without co-corrector)” value was “+++ (≥200)”.

With COc1ncc(C(C)(C)C)cc1CO[C@H]1[C@H](C(C)(C)C)[C@@H](C(=O)O)N(C(=O)C2CCCCC2)[C@H]1c1cccnc1OC(C)C [Example 250, (2S,3R,4S,5S)-3-tert-butyl-4-[(5-tert-butyl-2-methoxypyridin-3-yl)methoxy]-1-(cyclohexanecarbonyl)-5-{2-[(propan-2-yl)oxy]pyridin-3-yl}pyrrolidine-2-carboxylic acid] the EC50 [1] was less than 1000 nM, the EC50 [2] was less than 1000 nM and the “Maximum % activity (with co-corrector)” value was “+++ (≥350)”. For the same compound, the “Maximum % activity (without co-corrector)” value was “++ (≥100 and <200)”.
